What was measured:
[1] = system: S. aureus; assay: Time-kill kinetics in MHB; format: cell-based, Staphylococcus aureus; details: 4 × MIC in MHB
[2] = system: S. aureus; assay: Time-kill kinetics in MHB with 10% serum; format: cell-based, Staphylococcus aureus; details: 4 × MIC in MHB with 10% fetal bovine serum (FBS), 37 °C

For CN[C@H](CC(C)C)C(=O)N[C@H]1C(=O)N[C@@H](CC(N)=O)C(=O)N[C@H]2C(=O)N[C@H]3C(=O)N[C@H](C(=O)N[C@H](C(=O)O)c4cc(O)cc(O)c4-c4cc3ccc4O)[C@H](O)c3ccc(c(Cl)c3)Oc3cc2cc(c3O[C@@H]2O[C@H](CO)[C@@H](O)[C@H](O)[C@H]2O[C@H]2C[C@](C)(N)[C@H](O)[C@H](C)O2)Oc2ccc(cc2Cl)[C@H]1O [vancomycin], the “log reduction after 24 h” value ([1]; 37 °C) was 3 log, the “time to complete eradication of viable S. aureus cells” value ([1]; ~10^5 CFU mL^–1, 37 °C, followed for 24 h) was “not complete eradication” and the “log reduction in cell viability after 3 h exposure” value [2] was 1 log.

Reference: paper PMC7045321 (ACS Omega, 2020)
